From patent US20180200233A1, “COMPOSITIONS FOR PREVENTING CANCERS ASSOCIATED WITH HUMAN PAPILLOMA VIRUSES” (Loma Linda University, priority 2015, published 2018)

B1: TRAIL: tumor necrosis factor-related apoptosis-inducing ligand; extracellular domain of human TRAIL, His-tagged, expressed in E. coli (protein, UniProt P50591 39-281, looked up)
extracellular domain: TNELKQMQDKYSKSGIACFLKEDDSYWDPNDEESMNSPCWQVKWQLRQLVRKMILRTSEETISTVQEKQQNISPLVRERGPQRVAAHITGTRGRSNTLSSPNSKNEKALGRKINSWESSRSGHSFLSNLHLRNGELVIHEKGFYYIYSQTYFRFQEEIKENTKNDKQMVQYIYKYTSYPDPILLMKSARNSCWSKDAEYGLYSIYQGGIFELKENDRIFVSVTNEHLIDMDHEASFFGAFLVG
modifications: extracellular domain His tag
notes: tumor necrosis factor-related apoptosis-inducing ligand; extracellular domain of human TRAIL, His-tagged, expressed in E. coli

What was measured:
GST-E6/His-caspase 8 = biological target: T1, GST-E6/His-caspase 8 (Human papillomavirus type 16, UniProt P03126); experiment: AlphaScreen bead-based assay, GST-E6/His-caspase 8 binding; parameters: species or system HPV 16; settings: for inhibition of E6/caspase 8 binding (in words): FIG. 2A, primary screen at 10 μM
T1 construct: made in house
Protocol: (§1) FIGS. 2A-C are graphs providing data regarding inhibition of protein-protein interactions by 3-(1H-indol-1yl)propan-1-amine (1), three benzimidazole derivatives (2-4), and spinacine (5). Compounds, at the indicated concentrations (1.4 μM to 3.2 mM) were tested using a bead-based screening assay for their ability to inhibit three different protein/protein interactions: (FIG. 2A) GST-E6/His-caspase 8; (FIG. 2B) GST-E6/HisE6AP; and (FIG. 2C) GST-caspase 8/His-caspase 8. Binding in the presence of 1.4 μM of the test compound was set at 100%. Experiments were performed in triplicate, and error bars indicate the standard deviation.
HPV E6 binds to caspase 8 (Garnett, T. O., M. Filippova, and P. J. Duerksen-Hughes, Accelerated degradation of FADD and procaspase 8 in cells expressing human papilloma virus 16 E6 impairs TRAIL-mediated apoptosis. Cell death and differentiation, 2006. 13(11): p. 1915-26), and myricetin can block the E6/caspase 8 interaction in vitro (Yuan, C. H., et al., Small molecule inhibitors of the HPV16-E6 interaction with caspase 8. Bioorganic & medicinal chemistry letters, 2012. 22(5): p. 2125-9). A bead-based assay based on AlphaScreen™ technology (Perkin-Elmer) is used to identify inhibitors of the E6/caspase 8 interaction (Yuan, C. H., et al., Small molecule inhibitors of the HPV16-E6 interaction with caspase 8. Bioorganic & medicinal chemistry letters, 2012. 22(5): p. 2125-9). The ActiProbe 2K (2,000 compounds) library was screened using the same approach. […] Analysis of the structures and physical/chemical characteristics of those molecules led to the selection of five additional compounds: 3-(1H-indol-1-yl)propan-1-amine methanesulfonate (1), benzimidazole (2), 1H-benzimidazole-1-methanol (3), 2-(methoxymethyl)-1H-benzimidazole (4), and spinacine (5) for further study (FIG. 1).
(§2) To determine the dose-responsiveness of these five compounds, variable concentrations of those small molecules were first tested for their ability to inhibit E6/caspase binding. […] These molecules, which had been selected for their ability to interfere with E6/caspase 8 binding, were then tested to determine if they could also affect other interactions of E6, such as its binding to E6-associated protein (E6AP). The E6/E6AP interaction is required for the E6-mediated acceleration of p53 degradation (Huibregtse, J. M., M. Scheffner, and P. M. Howley, A cellular protein mediates association of p53 with the E6 oncoprotein of human papillomavirus types 16 or 18. The EMBO journal, 1991. 10(13): p. 4129-35).
Alpha-Screen™ technology was used to assess the interactions between GST-E6, GST-caspase 8, His-E6AP, and His-caspase 8. Binding assays were performed in white 384-well plates (Perkin-Elmer) in a total volume of 25 μl as previously described (Tungteakkhun, S. S., et al., The interaction between human papillomavirus type 16 and FADD is mediated by a novel E6 binding domain. Journal of virology, 2008. 82(19): p. 9600-14). Briefly, 5 μl (50 ng) of GST-E6 and 5 μl (87.5 ng) of His-caspase 8 were included in each reaction mixture with 5 μl blocking buffer (0.5 mg BSA, 0.5% Tween 20 in PBS) in the absence or presence of 10 μM of each test chemical. […] The mixture was incubated in the dark at room temperature overnight, and the emitted signal was detected using the Envision Multilabel plate reader (Perkin-Elmer). In the presence of test chemicals, the binding affinity was calculated as a percentage of the binding in the presence of carrier only (DMSO).

GST-E6/His-E6AP = biological target: T2, GST-E6/His-E6AP (Human papillomavirus type 16, UniProt P03126); experiment: AlphaScreen bead-based assay, GST-E6/His-E6AP binding; parameters: species or system HPV 16; settings: for inhibition of E6/E6AP interaction (in words): FIG. 2B
T2 construct: made in house
Protocol: as §1, §2
(§3) Alpha-Screen™ technology was used to assess the interactions between GST-E6, GST-caspase 8, His-E6AP, and His-caspase 8. Binding assays were performed in white 384-well plates (Perkin-Elmer) in a total volume of 25 μl as previously described (Tungteakkhun, S. S., et al., The interaction between human papillomavirus type 16 and FADD is mediated by a novel E6 binding domain. Journal of virology, 2008. 82(19): p. 9600-14). Briefly, 5 μl (50 ng) of GST-E6 and 5 μl (87.5 ng) of His-caspase 8 were included in each reaction mixture with 5 μl blocking buffer (0.5 mg BSA, 0.5% Tween 20 in PBS) in the absence or presence of 10 μM of each test chemical. Members of the library were present at […] in DMSO. After a one-hour incubation of the mixture at room temperature, 5 μl donor beads and 5 μl acceptor beads (Perkin-Elmer) were added to each well according to the manufacturer's protocol. The mixture was incubated in the dark at room temperature overnight, and the emitted signal was detected using the Envision Multilabel plate reader (Perkin-Elmer). In the presence of test chemicals, the binding affinity was calculated as a percentage of the binding in the presence of carrier only (DMSO).

[1] = biological target: T3, GST-caspase 8/His-caspase 8 (Homo sapiens, UniProt Q14790); experiment: AlphaScreen counter-screen, GST-caspase 8/His-caspase 8 binding; settings: for inhibition of caspase 8/caspase 8 interaction (in words): FIG. 2C
T3 construct: pTriEx-Caspase-8 DED plasmids; fused on or other part: GST tag on one copy, His tag on the other (AlphaScreen bead handles)
Protocol: as §1
To ask whether this inhibition was specific, a counter-screening assay was employed the ability of candidates to inhibit the binding of GST-caspase 8 to His-caspase 8 was assessed; those that did were to be eliminated. In this counter-screening assay, the materials in each well were the same as in the primary screen, with the exception that GST-caspase 8 replaced GST-E6.
as §3

SiHa cells = experiment: MTT cell viability, SiHa cells, TRAIL-induced apoptosis; assay type: cell-based, human; settings: SiHa cells in comparison to U2OS cells; with cycloheximide 5 μg/ml, FIG. 3A
Protocol: FIGS. 3A-E are graphs providing data regarding resistance of HPV^+ SiHa cells to TRAIL-, cisplatin- and […] apoptosis, in the presence and absence of small molecules as disclosed herein. (FIG. 3A) HPV^+ SiHa cells are resistant to TRAIL-induced apoptosis as compared to the human osteosarcoma cell line U2OS. Cells (2×10^4 cells per well) were seeded into a 96-well plate, allowed to incubate overnight, and then treated with indicated concentration of TRAIL in the presence of cycloheximide (5 μg/ml). The viability of cells was measured after overnight incubation using the MTT assay; the viability of cells untreated with TRAIL was set at 100% for each group. (FIG. 3B) The indicated concentrations of three small molecules were added to SiHa cells, and an MTT assay was preformed after overnight incubation. The viability of cells untreated with small molecules was set as 100%. (FIG. 3C) The indicated concentrations of myricetin or spinacine were added 4 h prior to TRAIL (100 ng/ml) in the presence of cycloheximide (5 μg/ml) and incubated at 37° C. overnight. The viability of cells untreated with small molecules was set at 100%. (FIG. 3D and FIG. 3E) SiHa cells (2×10^4 cells per well) were seeded into a 96-well plate and allowed to incubate overnight. 100 μM of myricetin and 50 μM of spinacine were added 4 h prior to either (FIG. 3D) doxorubicin or (FIG. 3E) cisplatin. Cell viability was measured after overnight incubation using the MTT assay, and the viability of cells untreated with either myricetin or spinacine was set at 100%. Experiments were performed in triplicate, and error bars indicate the standard deviation.
FIGS. 5A-B are graphs showing myricetin and spinacine (5) re-sensitized HPV^+, but not HPV^−, cells to treatment with TRAIL. SiHa (2×10^4 cells per well) and C33A cells (1×10^4 cells per well) were seeded into a 96-well plate and allowed to incubate overnight, then cells were pre-treated in the presence or absence of myricetin (100 μM) (FIG. 5A) or spinacine (50 μM) (FIG. 5B) for 4 h. The indicated concentration of TRAIL, along with cycloheximide (5 μg/ml) was added and cells were allowed to incubate overnight. Cell viability was measured by MTT assay, and the viability of cells untreated with TRAIL was set at 100%. Experiments were performed in triplicate, and error bars indicate the standard deviation.
The molecules were then tested to determine whether those that block E6/caspase 8 binding in vitro could also act in the context of a cell. SiHa cells are an HPV^+ cell line, derived from a cervical carcinoma, which serves as a commonly used model for HPV-associated malignancies. To determine whether HPV^+ SiHa cells are resistant to TRAIL-induced apoptosis, SiHa cells were treated with TRAIL and cell viability was assessed. TRAIL-sensitive, HPV^− U2OS cells served as a positive control. […] Myricetin and/or spinacine were tested to determine if they could sensitize these HPV^+ cells to TRAIL-induced apoptosis. […] Table 2 lists and compares the concentrations of the three tested compounds required to induce death in 50% of SiHa cells in the presence or absence of TRAIL.
The extracellular domain of human TRAIL was cloned into a pTriEx expression plasmid containing N-terminal Hisx6 tag. His-TRAIL was expressed in the E. coli BL-21 pLys strain and purified as previously described. Doxorubicin and cisplatin were purchased from Sigma. His-TRAIL, doxorubicin, and cisplatin were diluted in PBS to the desired concentration before using. To measure cell survival following treatment with TRAIL, cisplatin and doxorubicin, SiHa (2×10^4/well), C33A (1×10^4/well), and HNSCC cells (2×10^4/well) were seeded into 96-well plates and allowed to adhere overnight. Small molecules at the desired concentration were added and incubated at 37° C. for 4 h. As indicated, TRAIL, cisplatin or doxorubicin was then added. […]

[2] = test system: UPCI-SCC90-UP-Clone 35 (#90) cells; experiment: MTT cell viability, HPV+ HNSCC cell line #90 with TRAIL; assay type: cell-based; settings: all selected cell lines; TRAIL as high as 100 ng/ml, FIG. 7A
Protocol: FIGS. 7A-E are graphs showing myricetin and spinacine (5) re-sensitized HPV^+, but not HPV^−, head and neck cancer cell lines to treatment with TRAIL. (FIG. 7A) Both HPV^− and HPV^+ HN cancer cell lines display resistance to TRAIL treatment. HPV^− (#84) (Myricetin—FIG. 7B; Spinacine—FIG. 7C) and HPV^+ (#90) (FIG. 7D; Spinacine—FIG. 7E) head and neck cancer cell lines (2×10^4 cells per well) were seeded into 96-well plates and allowed to incubate overnight, then cells were pre-treated with myricetin (0-200 μM) or spinacine (0-100 μM) for 4 h. […] of TRAIL, along with cycloheximide (5 μg/ml) was added and cells were allowed to incubate overnight. Cell viability was measured by the MTT assay, and the viability of cells untreated with small molecules was set at 100%. Experiments were performed in triplicate, and error bars indicate the standard deviation.
As shown above, myricetin and spinacine sensitize SiHa cells to TRAIL and chemotherapy drugs. […] Other types of HPV^+ cancer cells were examined, and in particular, head and neck squamous cell carcinoma (HNSCC) cells can also be sensitized in this manner. […] For the combination experiments, 50 ng/ml TRAIL was applied in combination with either myricetin (0-200 μM) or spinacine (0-100 μM). […] In contrast […], TRAIL-induced cell death was enhanced 30% in UPCI-SCC90-UP-Clone 35, #90. Furthermore, 40 μM spinacine was able to enhance TRAIL-induced cell death in the HPV^+ #90 cell lines up to 50%.
The extracellular domain of human TRAIL was cloned into a pTriEx expression plasmid containing N-terminal Hisx6 tag. His-TRAIL was expressed in the E. coli BL-21 pLys strain and purified as previously described. Doxorubicin and cisplatin were purchased from Sigma. His-TRAIL, doxorubicin, and cisplatin were diluted in PBS to the desired concentration before using. […] All experiments were repeated at least three times (three biological replicates, carried out on different days), with each experimental group measured in triplicate within each of these individual experiments. […]

[3] = bead-based assay, compounds tested 1.4 μM to 3.2 mM

T2 sequence (P03126 whole entry): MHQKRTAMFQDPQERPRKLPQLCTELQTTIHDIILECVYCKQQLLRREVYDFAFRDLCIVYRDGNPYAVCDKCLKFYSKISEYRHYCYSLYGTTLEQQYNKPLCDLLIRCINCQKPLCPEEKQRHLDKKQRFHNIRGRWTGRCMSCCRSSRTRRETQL
T1 sequence (P03126 whole entry): as above
T3 sequence (Q14790 whole entry, the tested form may be a part): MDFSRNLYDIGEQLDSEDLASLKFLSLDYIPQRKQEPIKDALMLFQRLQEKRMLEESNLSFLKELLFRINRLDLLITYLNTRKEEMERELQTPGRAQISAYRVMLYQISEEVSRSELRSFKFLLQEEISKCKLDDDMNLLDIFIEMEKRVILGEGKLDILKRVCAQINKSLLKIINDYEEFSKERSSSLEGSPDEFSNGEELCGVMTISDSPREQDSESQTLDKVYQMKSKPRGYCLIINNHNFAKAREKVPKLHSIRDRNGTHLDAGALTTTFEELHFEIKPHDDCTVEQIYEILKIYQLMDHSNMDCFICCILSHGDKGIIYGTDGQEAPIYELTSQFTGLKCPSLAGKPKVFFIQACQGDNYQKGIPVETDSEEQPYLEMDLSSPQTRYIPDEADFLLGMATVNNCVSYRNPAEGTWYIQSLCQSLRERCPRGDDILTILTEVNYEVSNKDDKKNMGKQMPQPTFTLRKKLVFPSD

| Molecule | inhibition of E6/caspase 8 binding (in words) (GST-E6/His-caspase 8) | inhibition of E6/E6AP interaction (in words) (GST-E6/His-E6AP) | inhibition of caspase 8/caspase 8 interaction (in words) [1] | also measured |
| --- | --- | --- | --- | --- |
| CS(=O)(=O)O.NCCCn1ccc2ccccc21 [Compound 1, 3-(1H-indol-1-yl)propan-1-amine methanesulfonate] | dose-dependent inhibition | could also inhibit the E6/E6AP interaction | able to inhibit the caspase 8/caspase 8 interaction | – |
| c1ccc2[nH]cnc2c1 [Compound 2, benzimidazole] | dose-dependent inhibition | could also inhibit the E6/E6AP interaction | able to inhibit the caspase 8/caspase 8 interaction | – |
| COCc1nc2ccccc2[nH]1 [Compound 4, 2-(methoxymethyl)-1H-benzimidazole] | – | – | – | EC50 for GST-E6/His-caspase 8 interaction (GST-E6/His-caspase 8; [3]): No inhibition; EC50 for GST-E6/His-E6AP interaction (GST-E6/His-E6AP; [3]): No inhibition; EC50 for GST-caspase 8/His-caspase 8 interaction ([1]; compounds tested 1.4 μM to 3.2 mM): No inhibition |
| B1 | – | – | – | response of cells to TRAIL alone (in words) (SiHa cells): relatively resistant; response of HNSCC cell lines to TRAIL alone (in words) [2]: resistance |
